# Earlier results in US10720228B2, “Method and system for testing of active molecules using molecular simulation of skin membrane” (Tata Consultancy Services Limited, priority 2016, dated 2020).
# Settings: 323 K
smiles,measurement,value
O [water],experimentally observed free energy of water solvation in hexadecane,5.98 kcal/mol
